From ChEMBL document CHEMBL4251694 (ACS Med Chem Lett, 2018)

Legend:
Influenza A virus = assay: Antiviral activity against Influenza A virus A/WSN/33 H1N1 harboring N31S mutant infected in MDCK cells assessed as reduction in virus-induced cytopathic effect by crystal violet staining based light-microscopic analysis; format: functional, organism-based, A/WSN/1933(H1N1)
[1] = target: Matrix protein 2 (Influenza A virus (A/Udorn/307/1972(H3N2)), UniProt P0DOF8, S31N); assay: Binding affinity to Influenza A virus A/Udorn/72 M2 proton channel S31N mutant expressed in Xenopus laevis oocytes at pH 5.5 by two-electrode voltage clamp assay; format: cell-based, Influenza A virus (A/udorn/1972(H3N2))
[2] = target: Matrix protein 2 (Influenza A virus (A/Udorn/307/1972(H3N2)), UniProt P0DOF8, S31N); assay: Binding affinity to Influenza A virus A/Udorn/72 M2 proton channel S31N mutant by isothermal calorimetric titration; design: species or system Influenza A virus (A/udorn/1972(H3N2))

Row | SMILES | EC50 (Influenza A virus) | Kd [1] | Kd [2]
1 | CC(C)(N)C12CC3CC(CC(C3)C1)C2 | 0.03 µM | 444 µM | 
2 | NC12CC3CC(CC(C3)C1)C2 [AMANTADINE] | 0.48 µM |  | 
3 | C[C@H](N)C12CC3CC(CC(C3)C1)C2 | 0.02 µM |  | 
4 | C[C@@H](N)C12CC3CC(CC(C3)C1)C2 | 0.04 µM |  | 
5 | CCOC(=O)C1=C[C@@H](OC(CC)CC)[C@H](NC(C)=O)[C@@H](N)C1 [OSELTAMIVIR] | 0.02 µM |  | 
6 | CCC(N)(CC)C12CC3CC(CC(C3)C1)C2 | 1.01 µM |  | 
7 | CC(N)C12CC3CC(CC(C3)C1)C2 (stereo unspecified) [RIMANTADINE] | 0.04 µM |  | 
8 | CCCC(N)(CCC)C12CC3CC(CC(C3)C1)C2 | 1.06 µM | 1800 µM | > 10 µM
